In test [1] the test system is Saccharomyces cerevisiae. Kind of test: Inhibition of binding of concanavalin A to yeast mannan by compound was measured using peroxidase-labeled lectin assay, expressed relative to 2-Hydroxymethyl-6-methoxy-tetrahydro-pyran-3,4,5-triol.
Test [2] in a line: Inhibition of binding of pea lectins to yeast mannan by compound was measured using peroxidase-labeled lectin assay. Also noted: species or system Saccharomyces cerevisiae.
Test [3] deals with Saccharomyces cerevisiae. In words: Inhibition of binding of pea lectins to yeast mannan by compound was measured using peroxidase-labeled lectin assay, activity expressed relative to 2-Hydroxymethyl-6-methoxy-tetrahydro-pyran-3,4,5-triol.
A short description of test [4]: Inhibition of binding of concanavalin A to yeast mannan by compound was measured using peroxidase-labeled lectin assay,. Also noted: species or system Saccharomyces cerevisiae.

The text below walks through data of ChEMBL document CHEMBL1129128, “Synthesis of divalent -D-mannopyranosylated clusters having enhanced binding affinities towards concanavalin A and pea lectins” (Bioorg Med Chem Lett, 1996).

pIC50: −log10 of the molar value.

As for `O=C(O)c1cc(N/C(S)=N/CCSCCCO[C@H]2O[C@@H](CO)[C@@H](O)[C@H](O)[C@H]2O)cc(N/C(S)=N/CCSCCCO[C@H]2O[C@@H](CO)[C@@H](O)[C@H](O)[C@H]2O)c1`, the Relative potency in the test with Saccharomyces cerevisiae [1] is 30.3; in the test with Saccharomyces cerevisiae [3] it was 20.8. The values for the negative-log IC50 (pIC50) in test [2] and in test [4] were 3.73 and 4.52, respectively.

As for `O=C(CCCCC/N=C(\S)Nc1ccc(O[C@H]2O[C@@H](CO)[C@@H](O)[C@H](O)[C@H]2O)cc1)Nc1cc(NC(=O)CCCCC/N=C(\S)Nc2ccc(O[C@H]3O[C@@H](CO)[C@@H](O)[C@H](O)[C@H]3O)cc2)cc(C(=O)O)c1`, the Relative potency worked out at 25 in the test on Saccharomyces cerevisiae [1] and 6.7 in the test on Saccharomyces cerevisiae [3]. For the same compound, the negative-log IC50 (pIC50) (in general, the negative decadic logarithm of the IC50, by convention in mol/L) in test [2] was 3.24; in test [4], 4.43.

On to `CO[C@H]1O[C@H](CO)[C@@H](O)[C@H](O)[C@H]1O`, for which the Relative potency with Saccharomyces cerevisiae [1] and in the test on Saccharomyces cerevisiae [3] was 1 in each case. The pIC50 in test [2] was 2.41; in test [4], 3.03.

As for `COC(=O)c1cc(N/C(S)=N/CCSCCCO[C@H]2O[C@@H](CO)[C@@H](O)[C@H](O)[C@H]2O)cc(N/C(S)=N/CCSCCCO[C@H]2O[C@@H](CO)[C@@H](O)[C@H](O)[C@H]2O)c1`, the results for the Relative potency with Saccharomyces cerevisiae [1] and with Saccharomyces cerevisiae [3] were 138 and 29.8, respectively. Further, the results for the negative-log IC50 (pIC50) in test [2] and in test [4] were 3.89 and 5.17, respectively.

As for `O=[N+]([O-])c1ccc(O[C@H]2O[C@H](CO)[C@@H](O)[C@H](O)[C@H]2O)cc1`, the Relative potency with Saccharomyces cerevisiae [1] came to 8.7; with Saccharomyces cerevisiae [3], 2.6. Further, the pIC50 in test [2] is < 2.82; in test [4], 3.97.

`C=CCO[C@H]1O[C@@H](CO)[C@@H](O)[C@H](O)[C@H]1O`: the Relative potency with Saccharomyces cerevisiae [1] came out at 3.5; in the test on Saccharomyces cerevisiae [3], 4.1. For the same compound, the values for the pIC50 in test [2] and in test [4] were 3.03 and 3.58, respectively.
